Data reported in patent US20020198208A1, “MEDICINAL PREPARATION AND PROCESS FOR MANUFACTURING THEREOF” (priority 2000, published 2002).
Read-outs that look alike come from different tables or passages of the source.

Legend:
[1] = prior-art preparations, powder; cited from earlier work
[2] = cited from earlier work
macrophages [3] = conditions: cited from earlier work
[4] = Clinical course of Patient I. (prostatic adenoma); assay type: in vivo, human
Protocol: Patient one.
Was hospitalized with complaints of difficult urination and urges to urinate.
Diagnosis: stage 1I prostatic adenoma.
Two courses of therapy with […] sodium salt dihydrate were performed by injections for 20 and 15 injections, respectively, with a 30-day interval between the injections. Doses of the preparation were from 100 to 500 mg in 1-5 ml of distilled water correspondingly.

[5] = Patient S.
macrophages [6] = conditions: inflammatory diseases
[7] = Patient S., after therapy (300 mg injection 5 days, then 100 mg perorally 2 times a day)
[8] = Patient G.
Protocol: Patient two.
Was hospitalized with diagnosis of erysipelas of the left forearm, edema, and exacerbation of psoriasis (temperature at hospitalization was 39.9° C.).
Tameril was injected daily in a single dose of 200 mg in 2 ml water.

[9] = doses 20-1500 mg
[10] = Patient S., after therapy (300 mg injection 5 days, then 100 mg perorally 2 times a day); remark: listed apart in the source
macrophages [11] = conditions: patients with impaired cellular immunity
[12] = erysipelas and psoriasis, after therapy (200 mg injection daily, then 100 mg for 5 days)

## Nn1[nH]c(=O)c2ccccc2c1=O.O.O.[Na] [2-amino, 2-amino-1,2,3,4-tetrahydrophthalazine-1,4-dione sodium salt dihydrate]
[1]
  solubility in water: easily soluble in water
[2]; in vivo
  side effects and allergic reactions: does not cause side effects and allergic reactions
[2]; patients with chronic and other diseases
  effect of longterm treatment: causes tolerance and decreases the efficiency of therapy
Macrophages [3]; inflammatory processes
  effect on macrophages: inactivates macrophages for several hours
Macrophages [3]; patients with impaired cellular immunity, e.g. malignant neoplasms
  effect on macrophages: activates macrophages, interleukins and other acute-phase proteins
[4]; after the first course of 20 injections
  size of adenoma: decreased
[4]; after the second course of 15 injections
  size of adenoma: remained without further positive dynamic

## Nc1cccc2c(=O)[nH][nH]c(=O)c12.[Na] [Tamerit, 5-amino-2,3-dihydrophthalazine-1,4-dione sodium salt]
[5]; 10 days after beginning of the therapy
  state of the patient: satisfactory state
[5]; three days after beginning of the therapy
  state of the patient (cough, temperature): cough disappeared, and temperature returned to normal
Macrophages [6]
  contents of TNF and acute-phase proteins: decreasing the contents of TNF and acute-phase proteins
  function of neutrophilic granulocytes: enhances super-oxidizing function and phagocytic activity of neutrophilic granulocytes
[7]
  ESR: 13.0 mm/h
  Eosinophils: 3.0%
  Erythrocytes: 5e+12 L⁻¹
  Hemoglobin: 147 g/L
  Leukocytes: 5.5e+09 L⁻¹
  Lymphocytes: 23.0%
  Monocytes: 6.0%
  Neutrophils: Segmented: 74.0%
  Neutrophils: Stab: 6.0%
[8]; 200 mg injected daily
  time to disappearance of edema and hyperemia of the left forelimb: 4 days
[8]; after 200 mg daily then 100 mg injections for 5 days
  state of the patient: satisfactory state
[8]; [12]
  B-lymphocytes: 25.0%
  ESR: 16.0 mm/h
  Eosinophils: 4.0%
  Erythrocytes: 6.9e+12 L⁻¹
  Hemoglobin: 148 g/L
  Immunoglobulin A: 2.47 g/L
  Immunoglobulin G: 13.7 g/L
  Immunoglobulin M: 2.31 g/L
  Latex phagocytosis: 83.4%
  Leukocytes: 6.2e+09 L⁻¹
  Lymphocytes: 26.3%
  Monocytes: 2.0%
  Neutrophils: Segmented: 65.5%
  Neutrophils: Stab: 5.7%
  T-helpers: 31.2%
  T-lymphocytes: 60.3%
  T-suppressors: 20.1%
  TNF: 24.4
[9]
  side effects and allergic reactions: does not cause side effects and allergic reactions
[4]; 10 daily injections of 200 mg after the 2-amino courses
  state of the patient (urination): urination was normalized
[10]
  B-lymphocytes: 24.5%
  Immunoglobulin A: 2.20 g/L
  Immunoglobulin G: 12.4 g/L
  Immunoglobulin M: 2.21 g/L
  Latex phagocytosis: 76.2%
  T-helpers: 29.5%
  T-lymphocytes: 67.0%
  T-suppressors: 23.5%
  TNF: 22.5
Macrophages [11]
  effect on T-lymphocytes: initiates specific reactions of T-lymphocytes
Macrophages [11]; e.g. malignant neoplasms, evident by release of TNF, interleukins, other acute-phase proteins
  effect on macrophages: causes activation of macrophages

## Nc1cccc2c(=O)[nH][nH]c(=O)c12 [luminol, 5-amino-2,3-dihydrophthalazine-1,4-dione]
[2]; in vivo
  medical effectiveness: medically ineffective
